Experimental findings from patent US20030086952A1, “Highhly concentrated emulsions of organic compounds and methos of use” (priority 2001, published 2003) are described below.

“Also recorded” adds a separate entry of the source. Marks after values point to notes of the source that are not given here.

Holding throughout (type): physicochemical
Data set [1] is described as follows: Re-dilution of the concentrated emulsions in water. As to conditions: concentrated emulsion diluted in water. As to the method: (§1) The concentrated emulsions readily re-disperse upon dilution in water to working concentrations of interest. The final concentration of saponin with respect to the organic molecule is easily obtainable at 1:50 or 1:100 w/w, or even less. The shelf life of the concentrated emulsions, either at room temperature (about 25° C.) or at refrigerator temperature (about 4° C.) is at least 1 year, although separation of an emulsion, once stably formed, has not been observed.
Furthermore, no two of the three components were able to form an emulsion on their own under the stated conditions. Emulsions were only possible with all three components.
(§2) It is worth noting that vanillin is a solid at room termperature. The vanillin emulsion was prepared by first heating vanillin to at least 81° C. in order to melt it, then adding the other components.

Data set [2] is described as follows: Stability of the saponin emulsions (stable emulsion formed, phase separation, recrystallizing, shelf life). The note with it: for formation of a stable emulsion: with yucca saponin and water. As to the method: D-limonene (B. F. Goodrich/Kalama Chemicals, Kalama, Wash.) in the amount of 50 grams was added directly to a clean glass container. To this, 1.6 grams of yucca saponin was added. The glass container was covered tightly and agitated vigorously. […] 18.4 grams water was then added such that the total weight of the three components was 70 grams. The mixture was agitated again vigorously in a capped container. […] To this, another 30 grams limonene was added while mixing to form 100 g final emulsion. The final concentration of D-limonene in the emulsion was 80% by weight. An additional 10 grams of D-limonene can be to bring the final concentration to 90% by weight.
as §2

Data set [3] in a line: Production of concentrated Yucca shidegera saponin emulsions in water (content reached). As to conditions: for Ratio of saponin to emulsified molecule (by mass) / Content (by mass) of molecule in emulsion: Yucca shidegera saponin emulsion in water; for Content (by mass) of molecule in emulsion: mass fraction. As to the method:
as §1
mulsions of some aqueous-recalcitrant compounds were prepared in water using Yucca shidegera extracts containing about 12-14% saponin, as an emulsifying agent. The saponin preparations were obtained from Danco Natural Products, Pine Valley, Calif., and are sold under the trade names Pure Yucca (about 7-14% saponin and Yucca Ultra (about 10-11% saponin). These preparations had been filtered by the supplier to remove any fibers which could interfere with the emulsification process. The components were combined as follows, using D-limonene as an example.
D-limonene (B. F. Goodrich/Kalama Chemicals, Kalama, Wash.) in the amount of 50 grams was added directly to a clean glass container. To this, 1.6 grams of yucca saponin was added. The glass container was covered tightly and agitated vigorously. A poor, partially opaque solution resulted. […] 18.4 grams water was then added such that the total weight of the three components was 70 grams. The mixture was agitated again vigorously in a capped container. A viscous, white and truly opaque emulsion resulted. […] To this, another 30 grams limonene was added while mixing to form 100 g final emulsion. The final concentration of D-limonene in the emulsion was 80% by weight. An additional 10 grams of D-limonene can be to bring the final concentration to 90% by weight.
Likewise, other organic compounds can be emulsified by combining about 50 grams of the organic compound with the fraction of saponin indicated in Table 1 and water in a sufficient amount to produce an emulsion upon mixing of the three components. Following formation of the emulsion, the amount of organic compound can be increased as desired.

As for `C=C(C)[C@H]1CC=C(C)CC1` [d-limonene, D-limonene], the “dilution of emulsion in water” value in data set [1] is given as “readily diluted up to eighty-fold”. Further, the “phase separation of emulsion” value in data set [2] (ambient temperature, 50:12:1 D-limonene:water:saponin) is recorded as “will not undergo phase separation for up to two weeks”. In addition, the “formation of a stable emulsion” value in data set [2] was “stable emulsion”. In addition, in data set [3], the “Ratio of saponin to emulsified molecule (by mass)” value (from here on “Ratio of saponin”) is listed as 1/78 and the “Content (by mass) of molecule in emulsion” value (“Content (by mass)” for short) was “.909”. For the same molecule, the “concentration of organic compound in the emulsion” value in data set [3] (stable saponin emulsion in water, two step mixing) turned out to be 80 % by weight.

Consider `COc1cc(C=O)ccc1O` [vanillin], for which the “stability of emulsion without recrystallizing” value in data set [2] (room temperature, prepared from melt (>81° C.)) is on record as “stable at room temperature without recrystallizing”. Moreover, in data set [3], the “Ratio of saponin” value is on record as 1/34 and the “Content (by mass)” value is listed as “.566”.

Take cedryl acetate: in data set [3], the “Ratio of saponin” value is 1/196 and the “Content (by mass)” value is reported as “.794”.

With `C=C(C)C1CC=C(C)CC1` (single isomer, unassigned; (+)) [(+) limonene], in data set [3], the “Ratio of saponin” value was 1/18* and the “Content (by mass)” value was “.690”.

`C=CCc1ccc(O)c(OC)c1` [eugenol]: the “formation of a stable emulsion” value in data set [2] is given as “did not form stable emulsions; also recorded: stable emulsions were not obtained”.

`O=CC=Cc1ccccc1` [cinnamaldehyde]: in data set [3], the “Ratio of saponin” value is recorded as 1/50 and the “Content (by mass)” value is “.899”.

Regarding `CC/C=C\CC1C(=O)CCC1CC(=O)OC` (stereo not drawn) [methyl jasmonate], in data set [2], the “formation of a stable emulsion” value is on record as “did not form stable emulsions”.

Take `COc1cc(/C=C/C=O)ccc1O` [coniferaldehyde]: the “formation of a stable emulsion” value in data set [2] was “did not form stable emulsions; also recorded: stable emulsions were not obtained”.

As for `O=C(OCc1ccccc1)c1ccccc1` [benzyl benzoate], in data set [3], the “Ratio of saponin” value is listed as 1/55 and the “Content (by mass)” value is “.534”.

For `COc1cc(/C=C/C=O)cc(OC)c1O` [sinapaldehyde], the “formation of a stable emulsion” value in data set [2] is recorded as “did not form stable emulsions; also recorded: stable emulsions were not obtained”.
